Source: US20260283924A1, “TOPICAL COMPOSITIONS FOR PROMOTING HAIR GROWTH” (ESTETRA SRL, priority 2023, published 2026)

Test system: occipital hair follicles (healthy donor)
Assay: Healthy donor hair follicle organ culture (ex vivo model), Example 8
Assay type: cell-based, human
Settings: 300 nM
Experimental: In brief, 24 full-length occipital hair follicles (HF) were obtained from one healthy donor. […] Test substance (either vehicle (0.03% EtOH), E2 at concentration of 300 nM or E4 at concentrations of 3 μM or 300 nM) was added to the medium at the end of the 24 h. Total culturing time was 5 days depending on the stage of the HFs in the vehicle group. The experimental design is depicted in FIG. 23.

C[C@]12CC[C@@H]3c4ccc(O)cc4CC[C@H]3[C@@H]1CC[C@@H]2O [Formulation E2, 17beta-estradiol]
K15 expression in the suprabulbar outer root sheath: tendentially increased | area of the dermal papilla: no effect | density of cells in the dermal cup of anagen HFs: no effect | density of cells in the dermal papilla: no effect | density of cells in the dermal papilla stalk: no effect | hair matrix keratinocyte proliferation: tendentially increased | hair shaft production (reduction vs vehicle): significantly reduced | microscopic hair cycle: did not affect the hair cycle | number of CD34+ cells in the suprabulbar outer root sheath: no effect | number of cells (K15) in the suprabulbar outer root sheath: tendentially increased | total number of cells in the dermal cup of anagen HFs: no effect | total number of cells in the dermal papilla: no effect | total number of cells in the dermal papilla stalk: no effect | K15 expression in the suprabulbar outer root sheath (listed as Estradiol): tendentially increase K15 expression | area of the dermal papilla (listed as Estradiol): does not display a significant effect | density of cells in the dermal cup of anagen HFs (listed as Estradiol): does not display a significant effect | density of cells in the dermal papilla (listed as Estradiol): does not display a significant effect | density of cells in the dermal papilla stalk (listed as Estradiol): does not display a significant effect | hair matrix keratinocyte proliferation (listed as Estradiol): increased | hair shaft production (reduction vs vehicle) (listed as Estradiol): Reduction of hair shaft production | microscopic hair cycle (listed as Estradiol): does not affect hair cycle | number of CD34+ cells in the suprabulbar outer root sheath (listed as Estradiol): does not display any effect | number of cells (K15) in the suprabulbar outer root sheath (listed as Estradiol): tendentially increase | total number of cells in the dermal cup of anagen HFs (listed as Estradiol): does not display a significant effect | total number of cells in the dermal papilla (listed as Estradiol): does not display a significant effect | total number of cells in the dermal papilla stalk (listed as Estradiol): does not display a significant effect
